In general, IC50 refers to the concentration that gives 50% inhibition. The low end stands for inhibition by little substance, the high end for a need for much substance.

One assay deals with HYB 273-1. In words: competitive ELISA (immunoassay) for BAM with monoclonal antibody on hapten-coated microtitre plates. Type of assay: binding, mice. On the procedure:
The cross reactivity of an assay is a measure of its specificity for the analyte relative to similar or related compounds. It is useful in assessing its accuracy in crude samples with several potential haptens. Standard curves based on the 4-parameter-logistic equation (eq 1) were generated for a series of analytes (Table 3) in the range 100 to 0 mg/L (10-fold titrations). The IC50 value (C*) for each analyte was then compared with the IC50 of BAM (C) in equation 3. CR = ((C)/(C*)) × 100% [formula] • CR: cross-reactivity [%] • C: value of IC50 for BAM [µg/L] • C*: value of IC50 for cross-reacting analyte [µg/L]
Standards were used to generate comparative standard curves. The standards were added to hapten-coated plates followed by a known amount of antibody, such as HYB 273-1 in buffer. The plate was incubated for 1 hour, washed, and incubated with RαM^HRP, an enzyme label and incubated for 1 hour. After extensive washing, the enzyme substrate TMB-Plus was added. The colour development was stopped using acid and the absorbance read at 450 nm.
The standards were used to generate a semi-log graph based on the 4-parameter-logistic method (Rodbard, 1974: equation 1). Y = ((A-D))/([1+(((X)/(C)))^B]) + D [formula] • X: concentration of analyte (µg/L). • Y: absorbance at 450 nm (A450). • A: maximum absorbance (upper asymptote). • D: minimum absorbance (lower asymptote). • C: midpoint between A and D. Extrapolation to x-axis yields the value of IC50 (µg/L). • B: slope for the transition between A and D
The signals were normalised according to equation 2 %(B)/(B0) = (A-Axs)/(A0 -Axs) × 100 [formula] • B : concentration of bound antibody and • B0 : concentration of bound antibody in the absence of analyte.
On the plot, 100 % corresponds to the absorption of the zero control (A0: 0 µg/L) and 0 % corresponds to the absorption of an excess control (Axs: 100 µg/L). The normalised signals were plotted vs. BAM concentration and the four-parameter-logistic equation (eq 1) was fitted to the experimental points.
i) Passive adsorption: A MaxiSorp™ microtitre plate was filled by a stationary dispensor with 200 µL/well BAM-OA (16.7 ng/mL) in coating buffer. After coating over night at 4°C the plate was washed 4 times with de-ionised water and dried 30 min at 37°C. The plate was either used immediately or sealed with tape lid and stored at room temperature in the dark until use.
A PolySorp™microtitre plate was filled by a stationary dispensor with 200 µL/well BAM-OA-AQ (50 ng/mL) in 0.1 × PBS. After being exposed to uv-light (300-400 nm) at 34°C for 30 min, the plate was washed 4 times with de-ionised water and dried 30 min at 37°C. […]
Standards (in Milli-Q® water) and samples (150 µL) were added to the hapten-coated plate followed by the addition of 50 µL antibody (HYB 273-1) diluted in 10 × PBST (66.7 ng/mL). […] The colour development was stopped after 10 minutes by adding 50 µL/well 1 M H2SO4 and the absorbance was read at 450 nm. […] Y = ((A-D))/([1+(((X)/(C)))^B]) + D [formula] • X: concentration of analyte (µg/L). • Y: absorbance at 450 nm (A450). • A: maximum absorbance (upper asymptote). • D: minimum absorbance (lower asymptote). • C: midpoint between A and D. Extrapolation to x-axis yields the value of IC50 (µg/L). • B: slope for the transition between A and D
These calculations were executed automatically by the software package SOFTmax® PRO Version 2.2 upon reading the microtitre plates. […]

The test system of assay [1] is Balb/c×CF1 F1-hybrid mice. As to the kind of experiment: immunisation of mice with hapten-polymer carrier complex and generation of monoclonal antibodies. The format is in vivo. Conditions: hapten bound to polymer carrier (ovalbumin). On the procedure: Live mice were primed for immunisation by an intraperitoneal injection of live BCG-vaccine one month before immunisation. The antigen (hapten-OA complex), once adsorbed onto Al(OH)3, was injected intraperitonally and test bleedings were collected. When antibody titre's exceeded 1:2000, mice were considered ready for fusion and the method described by Köhler and Milstein (1975) was employed with minor modifications. Monoclonal antibodies were selected on basis of titre, affinity and specificity. Selected clones were recloned until monoclonality and stored frozen at -80 °C.
Ten to twelve weeks old female Balb/c×CF1 F1-hybrid mice were used for immunisation. 5 One month before immunisation they were primed with 0.2 mL live BCG-vaccine intraperitonally. The antigen ([…] carrier/immunogen) was absorbed onto Al(OH)3 as an adjuvant. The total volume of vaccine per immunisation was 200 µL, containing […] of antigen and […] of adjuvant. The antigen was injected intraperitonally with 2-weeks intervals. Test bleedings were collected 10 days after immunisation and assayed in ELISA.
When antibody titre's exceeded 1:2000, mice were regarded ready for fusion. The procedure as described by Köhler and Milstein (1975) was employed with minor modifications. Monoclonal antibodies were selected on basis of titre, affinity and specificity. […]

Several values for one entry are separate records, joined by “and”; a condition that tells them apart may be missing. Identical values can stand only once. Entries after “also recorded” stand apart in the source; their conditions may differ.

In the assay on HYB 273-1 (IC50 of BAM divided by IC50 of analyte x 100, analytes assayed up to 100 mg/L, antibody HYB 273-1), `NC(=O)c1ccc(Cl)cc1Cl` [2,4-dichlorobenzamide] came in with a cross-reactivity of 3.8%.
As to `NC(=O)c1c(Cl)cccc1Cl` [BAM, 2,6-dichlorobenzamide], the IC50 was 0.189 ng/mL and 0.19 ng/mL with HYB 273-1 (covalently immobilised (photocoupled) plates, PolySorp, BAM-OA-AQ, Figure 3A); 0.144 ng/mL and 0.14 ng/mL in the assay on HYB 273-1 (passively adsorbed plates, MaxiSorp, BAM-OA, Figure 3B). Also, the “DL15 (detection limit, analyte concentration giving a 15 % decrease in maximum signal)” value came out at 0.02 µg/L in the assay with HYB 273-1 (photo catalysed covalent immobilisation, Figure 3A) and 0.045 µg/L in the assay with HYB 273-1 (surfaces immobilised by passive adsorption, Figure 3B).
With “N-(5-carboxypentyl)-2,4-dichloro-3-amido aniline [EQ-0031]”, the immunoresponse on immunisation entry in assay [1] is “good responses were generated and several clones were produced; also recorded: generated good immunoresponse”.

Source of the values: patent publication EP1204866B1, “IMMUNOASSAY FOR PESTICIDES AND THEIR DEGRADATION PRODUCTS” (priority 1999, dated 2001).
